Experimental data from patent publication US5411985A, “Gamma-pyrone-3-acetic acid as an inhibitor or interleukin-1 β inventory enzyme” (Merck & Co., Inc., priority 1993, dated 1995).

What was measured:
[1] = biological target: T1, interleukin-1β converting enzyme (ICE) (Homo sapiens, UniProt P29466); assay: ICE activity by the procedure of Thornberry et al. (1992); format: biochemical
T1 sequence (P29466 120-297 limits assumed): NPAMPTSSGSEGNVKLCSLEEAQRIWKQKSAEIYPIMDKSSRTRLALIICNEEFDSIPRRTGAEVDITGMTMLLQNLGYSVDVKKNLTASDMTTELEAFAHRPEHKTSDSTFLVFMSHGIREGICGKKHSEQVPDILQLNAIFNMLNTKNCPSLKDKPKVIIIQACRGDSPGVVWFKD
T1 sequence (P29466 317-404 limits assumed): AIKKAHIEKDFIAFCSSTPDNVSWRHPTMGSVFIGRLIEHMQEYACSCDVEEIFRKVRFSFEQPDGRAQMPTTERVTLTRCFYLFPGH
Description: Assay for assessing the ICE activity of compound of Formula I
Gamma-pyrone-3-acetic acid was assessed for ICE activity by the procedure of Thomberry, et al (1992) Nature Vol. 356 pp 768-774.

[2] = Solubility of isolated material; format: physicochemical
Description: Compound was isolated further by purification using HPLC. Two mL of filtered solution was passed through a C4 radial compression column (25×100 mm, WATERS ASSOCIATES) and an isocratic flow rate of 10 mL per minute of water was used to elute the active compound. A total of 5 runs were performed with fractions being collected at one minute intervals. The fractions were tested for ICE-activity. The active fractions eluted between 9-10 minutes. The ICE-active-rich cuts from each run were pooled and lyophilized. The resulting material appeared to be an oily brown substance that was soluble in water, methanol, and DMSO. Estimates of 7 mg of compound can be isolated from 300 ml of whole broth.

## O=C(O)Cc1coccc1=O [Gamma-pyrone-3-acetic acid, gamma-pyrone-3-acetic acid]
[1]; pH 6.5 and 1 mM DDT
  IC50: 1300 nM
[1]; pH 7:5 and 1 mM DDT
  IC50: 4540 nM
[2]; DMSO
  solubility in DMSO: soluble
[2]; methanol
  solubility in methanol: soluble
[2]; water
  solubility in water: soluble
